Data from patent publication US20230137092A1, “Composition and Method for the Treatment and Prevention of Cardiac, Pulmonary, Dermal, and Renal Fibrosis” (EMERALD HEALTH PHARMACEUTICALS INC., priority 2020, published 2023).

Columns and labels:
[1] = system: Ang II-induced cardiac fibrosis; assay: Ang II-induced cardiac fibrosis, preventive model: collagen by Sirius red/fast green in left ventricle; assay type: in vivo, mouse; settings: vs Ang II group
Description: Ang II causes myocardial fibrosis in a short period of time (Sopel M et al., 2011, Lab. Invest., 91:565-578) characterized by collagen accumulation and after 14 days of Ang II infusion (Sigusch H H et al., 1996, Cardiovascular Research, 31:546-554). […] Subcutaneous infusion of Ang II using ALZET® osmotic pumps was used to study compound preventive effects. ALZET® osmotic minipumps (Model #2004, Charles Rives, Barcelona, Spain) delivering of Ang II (1.0 mg kg^− min^−) (Sigma-Aldrich, Madrid, Spain) for two weeks. Compound treatment was daily administered in parallel, one day before of the implantation of the subcutaneous pump, beneath the mid scapular loose skin and consisted of daily oral gavage of compound (20 mg/kg) or vehicle (Corn Oil/Maisine CC, 1/1). Mice were acclimated to manipulators for a week previously to the experiments in order to reduce stress and allow the detection of subtle changes in behavior by researchers. […]
Interstitial heart fibrosis was determined by the measurement of Sirius red/fast green staining (collagen content) (FIG. 1A). […]
Mice treated with Ang II presented an increase in the thickness of aortic media layer by collagen accumulation. […] Three-four random fields of each heart were photographed by standard brightfield microscopy and digitalized using a Leica DFC420c camera and analyzed using Fiji software (rsb.info.nih.gov/ij/).

[2] = system: inflammatory and fibrotic marker mRNAs in heart; assay: Real-time quantitative PCR of inflammatory and fibrotic markers in heart, Ang II preventive model; assay type: in vivo, mouse; settings: Ang II infused mice; 2-ΔΔCt method
[3] = system: cardiac myofibroblast proliferation; assay: Ki67 immunostaining of left ventricle sections (myofibroblast proliferation), Ang II preventive model; assay type: in vivo, mouse; settings: two weeks after Ang II infusion; ###p<0.001 versus Ang II group
Description: Proliferation of fibroblast is an important event of Ang II-induced fibrosis and plays an important role in cardiac fibrosis. […] Ki 67 is a protein that is encoded by the MKI67 gene and is a cellular marker for proliferation. Cardiac tissue sections ([…]) were deparaffinized and boiled for 10 minutes in sodium citrate buffer (10 mM, pH 6.0) (Sigma-Aldrich, Madrid, Spain) for antigen retrieval. The sections were then incubated in a PBS washing buffer containing 0.1% Triton X-100 (Sigma-Aldrich, Madrid, Spain) three times for 10 minutes. Nonspecific binding was blocked with 3% bovine serum albumin (BSA) (Sigma-Aldrich, Madrid, Spain). The sections were incubated overnight at 4° C. with Ki 67 antibody (1:100 dilution, ab15580, Abcam, Cambridge, UK). After three washes for 10 minutes each in wash buffer, slides were incubated with secondary antibody anti-rabbit Texas Red (1:100 dilution, #A-6399, Thermo Fischer Scientific, Waltham, Mass., USA) for 1 hour at room temperature in the dark. […] All images were acquired using a spectral confocal laser-scanning microscope LSM710, (Zeiss, Jena, Germany) with a 63× Plan-Apochromat oil immersion lens and quantified in 10-15 randomly chosen fields using ImageJ software (rsb.info.nih.gov/ij/).

[4] = system: Ang II-induced renal fibrosis; assay: Ang II therapeutic model: renal fibrosis, Sirius red; assay type: in vivo, mouse; settings: Ang II four weeks, 20 mg/kg oral last two weeks, #p<0.05 versus Ang II group
Description: (§1) For the therapeutic model, infusion of Ang II for four weeks and the compound of Formula (VIII) (20 mg/kg) was administrated after two weeks of pump implantation. Subcutaneous infusion of Ang II using ALZET osmotic minipumps was used to study the preventive effects of the compound ALZET® osmotic minipumps (Model #2004, Charles Rives, Barcelona, Spain) delivering of Ang II (500 ng kg^−1 min^−1) (Sigma-Aldrich, Madrid, Spain) for four weeks. Compound treatment was daily administered in parallel, two weeks after the implantation of the subcutaneous pump, beneath the midscapular loose skin and consisted of daily oral gavage of compound of Formula (VIII) (20 mg/kg) or vehicle (Corn Oil/Maisine CC, 1/1). Mice were acclimated to manipulators for a week previously to the experiments in order to reduce stress and allow the detection of subtle changes in behavior by researchers. […] Neither piloerection nor hunched appearances were appreciated during the experimental procedures. Mice were sacrificed by cervical dislocation and the heart, aorta, kidney, and lung were removed and processed for histological examination or were frozen for further analysis.

hICF cells = assay: Real-time PCR of IL1b, IL6, Col1A2 and CCL2 mRNA in hICF; assay type: cell-based, human; settings: induced by Ang II or TGFb in hICF cells
Description: hICF (5×10^4 cells/cm^2) were preincubated with Compound of Formula (VIII), stimulated with Ang II for either 2 hours or 24 hours and total RNA was extracted using High Pure Isolation Kit (Roche Diagnostic, Switzerland). Total RNA (1 μg) was retrotranscribed using the iScript™ cDNA Synthesis Kit (Bio-Rad) and the cDNA analyzed using a CFX96 Real-Time PCR Detection System (Bio-Rad) by real-time PCR using the iQ™ SYBR Green Supermix (Bio-Rad). Human HPRT was used for in vitro studies to standardize the mRNA expression levels in each sample. Expression levels were calculated using the 2-ΔΔCt method. Compound of Formula (VIII) inhibited the mRNA expression of IL1b, IL6, Col1A2 and CCL2, induced by Ang II or TGFb in hICF cells (FIG. 17).

[5] = Weight and behaviour observation during the therapeutic Ang II protocol; assay type: in vivo, mouse; settings: 20 mg/kg daily oral gavage
Description: as §1

C=C(C)C1CCC(C)=C[C@H]1C1=C(O)C(=O)C(CCCCC)=C(NCc2ccccc2)C1=O (stereo partly shown) [Formula (VIII)]
collagen content accumulation on interstitial area of left ventricle ([1]; Ang II 1.0 mg kg^- min^- two weeks, 20 mg/kg daily oral gavage): significantly (p<0.001) reduced | perivascular collagen content (perivascular myocardial area) ([1]; Ang II two weeks, 20 mg/kg oral): significant reduction | IL1β expression level in left ventricle [2]: significantly reduced | IL6 expression level in left ventricle [2]: significantly reduced | TNC expression level in left ventricle [2]: significantly reduced | myofibroblast proliferation in left ventricle (Ki67-positive cells) [3]: reduced | renal fibrosis (collagen accumulation in kidney) [4]: reduced | CCL2 mRNA expression (hICF cells): inhibited | Col1A2 mRNA expression (hICF cells): inhibited | IL1b mRNA expression (hICF cells): inhibited | IL6 mRNA expression (hICF cells): inhibited | behavioral changes [5]: No behavioral changes | mice weight ([5]; between experimental groups): no significant changes
